Data from patent publication US20150031102A1, “METHODS AND COMPOSITIONS FOR ENHANCED PRODUCTION OF BUTANOL BY CLOSTRIDIA” (Butrolix LLC, priority 2012, published 2015).
“And” between values parts separate entries of the source, which are not always exact repeats. Equal values may be shown once.

System: Clostridium acetobutylicum strain ATCC 824
Experiment: Sequential batch transfer in 24-well culture plates (butanol, residual glucose, butanol yield and productivity)
Assay type: cell-based
Details: for Butanol: Experiment 1; for Residual glucose concentration: initial glucose 60 g/L
Method: Each well contained 1.5 mL of growth medium. Peptide was added to each well at the indicated concentration (0, 25, 50, and 100 nM). Every 24 hours fresh medium and peptide treatment were added to a new column of wells then 1.5 μL of the previous day culture was transferred to the new well. Wells were harvested for glucose and butanol analysis after 96 hours of growth. Transfers 1, 4, 7, 10, 13, 16, […].
Briefly, Clostridium spores were germinated in a suitable growth medium for 18-24 hours then […] was transferred to 1.5 mL of fresh medium in each of four wells on a 24-well culture plate. Three of the wells had been treated with 25 nM, 50 nM and 100 nM of peptide, respectively while the fourth well was untreated. Thereafter, every 24 hours […] of each subculture was transferred to 1.5 mL of fresh medium that contained the same peptide treatment or no treatment. Transfers of successive subcultures were done for 24 days, and each subculture was grown for 96 hours before being harvested. Culture supernatants were recovered following centrifugation and were analyzed for butanol and residual glucose concentrations. Determination of optimum peptide treatment levels was based on a graphical comparison of the concentration of butanol in each of the four culture wells for sequential transfers 1, 4, 7, 10, 13, 16, 19, 22 and 24.
Clostridium acetobutylicum strain ATCC 824 was used in all experiments and the growth medium used for sequential batch transfer, time course, and continuous culture experiments contained yeast extract, casamino acids, L-cysteine, L-asparagine, phosphate buffer, trace minerals, and 6% glucose. What are believed to be quorum-sensing peptides that were used in the experiments were chemically synthesized peptides SEQ ID NO: 143 (amino acid sequence: SYPGWSW) and SEQ ID NO: 144 (amino acid sequence: ILILISG). Routine growth of the bacteria as well as the sequential batch and time course experiments were conducted in a Form a Scientific Model 1029 anaerobic gas chamber at 32° C. Continuous cultures were performed at 32° C. using duplicate New Brunswick Scientific BioFlo 3000 apparati with a dilution rate of 0.01 volume per hour, 75 rpm agitation, and nitrogen gas sparging. Optical density of culture samples was measured at 600 nm in a Beckman DU 600 series spectrophotometer and glucose was analyzed using a YSI Model 2700 Select Biochemistry Analyzer with internal glucose calibration. Butanol concentrations were determined by measuring experimental and standard samples using a Varian Saturn 3 Gas Chromatograph/Mass Spectrometer and calculating butanol concentrations using standard curves.
(§1) Sequential batch transfer experiments were carried out in 24-well culture plates that contained 1.5 mL of medium per well. Peptide was added to each well at the indicated concentrations of 0 nM (control), 25 nM, 50 nM, or 100 nM. Every 24 hours, fresh medium and peptide treatments were added to a new column of wells. Then, 1.5 uL of the previous day culture was transferred to the new well. Wells were harvested for glucose and butanol analysis after 96 hours of growth; transfers 1, 4, 7, 10, 13, 16, 19, 22, and 24 were analyzed. Two representative experiments are shown in Tables 30 and 31 and FIGS. 14 and 15.
as §1, with “32” for “30”, “33” for “31”, “16” for “14”, “17.” for “15.”

[1] = 50 nM, transfer 10, first experiment, after 96 hours of culture
[2] = 50 nM, transfer 13, first experiment, after 96 hours of culture
[3] = 50 nM, transfer 16, first experiment, after 96 hours of culture
[4] = 50 nM, transfer 19, first experiment, after 96 hours of culture
[5] = 50 nM, transfer 22, first experiment, after 96 hours of culture
[6] = 50 nM, transfer 24, first experiment, after 96 hours of culture
[7] = 100 nM peptide, transfer 1, after 96 hours of culture, Expt. 2 (repeat)
[8] = 100 nM peptide, transfer 4, after 96 hours of culture, Expt. 2 (repeat)
[9] = 100 nM peptide, transfer 7, after 96 hours of culture, Expt. 2 (repeat)
[10] = 100 nM peptide, transfer 10, after 96 hours of culture, Expt. 2 (repeat)
[11] = 100 nM peptide, transfer 13, after 96 hours of culture, Expt. 2 (repeat)
[12] = 100 nM peptide, transfer 16, after 96 hours of culture, Expt. 2 (repeat)
[13] = 100 nM peptide, transfer 19, after 96 hours of culture, Expt. 2 (repeat)
[14] = 100 nM peptide, transfer 22, after 96 hours of culture, Expt. 2 (repeat)
[15] = 100 nM peptide, transfer 24, after 96 hours of culture, Expt. 2 (repeat)
[16] = 100 nM, transfer 1, first experiment, after 96 hours of culture
[17] = 100 nM, transfer 4, first experiment, after 96 hours of culture
[18] = 100 nM, transfer 7, first experiment, after 96 hours of culture
[19] = 100 nM, transfer 10, first experiment, after 96 hours of culture
[20] = 100 nM, transfer 13, first experiment, after 96 hours of culture
[21] = 100 nM, transfer 16, first experiment, after 96 hours of culture
[22] = 100 nM, transfer 19, first experiment, after 96 hours of culture
[23] = 100 nM, transfer 22, first experiment, after 96 hours of culture
[24] = 100 nM, transfer 24, first experiment, after 96 hours of culture
[25] = BP110517 first experiment, 25 nM, transfers 19, 22 and 24
[26] = BP110517 first experiment, 50 nM, transfer 10

SYPGWSW [peptide SEQ ID NO: 143]
Butanol (50 nM, transfer 10, after 96 hours of culture, listed as BP110517): 13.7 g/L and 13.66 g/L | Butanol productivity [1]: 0.14 g butanol/L-h | Butanol yield [1]: 0.23 g butanol/g/glucose | Residual glucose concentration [1]: 0.1 g/L | Butanol (50 nM, transfer 13, after 96 hours of culture): 10.28 g/L | Butanol productivity [2]: 0.11 g butanol/L-h | Butanol yield [2]: 0.17 g butanol/g/glucose | Residual glucose concentration [2]: 0.1 g/L | Butanol (50 nM, transfer 16, after 96 hours of culture): 10.95 g/L | Butanol productivity [3]: 0.11 g butanol/L-h | Butanol yield [3]: 0.18 g butanol/g/glucose | Residual glucose concentration [3]: 0.1 g/L | Butanol (50 nM, transfer 19, after 96 hours of culture): 3.96 g/L | Butanol productivity [4]: 0.04 g butanol/L-h | Butanol yield [4]: 0.07 g butanol/g/glucose | Residual glucose concentration [4]: 47.6 g/L | Butanol (50 nM, transfer 22, after 96 hours of culture): 5.35 g/L | Butanol productivity [5]: 0.06 g butanol/L-h | Butanol yield [5]: 0.09 g butanol/g/glucose | Residual glucose concentration [5]: 45.9 g/L | Butanol (50 nM, transfer 24, after 96 hours of culture): 4.70 g/L | Butanol productivity [6]: 0.05 g butanol/L-h | Butanol yield [6]: 0.08 g butanol/g/glucose | Residual glucose concentration [6]: 50.2 g/L | Butanol concentration [7]: 0.62 g/L | Butanol productivity [7]: 0.01 g butanol/L-h | Butanol yield [7]: 0.01 g butanol/g/glucose | Residual glucose concentration [7]: 55.6 g/L | Butanol concentration [8]: 1.50 g/L | Butanol productivity [8]: 0.02 g butanol/L-h | Butanol yield [8]: 0.03 g butanol/g/glucose | Residual glucose concentration [8]: 49.3 g/L | Butanol concentration [9]: 4.10 g/L | Butanol productivity [9]: 0.04 g butanol/L-h | Butanol yield [9]: 0.07 g butanol/g/glucose | Residual glucose concentration [9]: 0.1 g/L | Butanol concentration [10]: 7.37 g/L | Butanol productivity [10]: 0.08 g butanol/L-h | Butanol yield [10]: 0.13 g butanol/g/glucose | Residual glucose concentration [10]: 0.1 g/L | Butanol concentration [11]: 5.60 g/L | Butanol productivity [11]: 0.06 g butanol/L-h | Butanol yield [11]: 0.10 g butanol/g/glucose | Residual glucose concentration [11]: 0.1 g/L | Butanol concentration [12]: 7.51 g/L | Butanol productivity [12]: 0.08 g butanol/L-h | Butanol yield [12]: 0.13 g butanol/g/glucose | Residual glucose concentration [12]: 0.1 g/L | Butanol concentration [13]: 4.03 g/L | Butanol productivity [13]: 0.04 g butanol/L-h | Butanol yield [13]: 0.07 g butanol/g/glucose | Residual glucose concentration [13]: 0.1 g/L | Butanol concentration [14]: 5.05 g/L | Butanol productivity [14]: 0.05 g butanol/L-h | Butanol yield [14]: 0.09 g butanol/g/glucose | Residual glucose concentration [14]: 0.1 g/L | Butanol concentration [15]: 3.42 g/L | Butanol productivity [15]: 0.04 g butanol/L-h | Butanol yield [15]: 0.06 g butanol/g/glucose | Residual glucose concentration [15]: 0.1 g/L | Butanol (100 nM, transfer 1, after 96 hours of culture): 1.14 g/L | Butanol productivity [16]: 0.01 g butanol/L-h | Butanol yield [16]: 0.02 g butanol/g/glucose | Residual glucose concentration [16]: 48.3 g/L | Butanol (100 nM, transfer 4, after 96 hours of culture): 6.97 g/L | Butanol productivity [17]: 0.07 g butanol/L-h | Butanol yield [17]: 0.12 g butanol/g/glucose | Residual glucose concentration [17]: 0.1 g/L | Butanol (100 nM, transfer 7, after 96 hours of culture): 7.33 g/L | Butanol productivity [18]: 0.08 g butanol/L-h | Butanol yield [18]: 0.12 g butanol/g/glucose | Residual glucose concentration [18]: 0.1 g/L | Butanol (100 nM, transfer 10, after 96 hours of culture): 11.33 g/L | Butanol productivity [19]: 0.12 g butanol/L-h | Butanol yield [19]: 0.19 g butanol/g/glucose | Residual glucose concentration [19]: 0.1 g/L | Butanol (100 nM, transfer 13, after 96 hours of culture): 7.22 g/L | Butanol productivity [20]: 0.08 g butanol/L-h | Butanol yield [20]: 0.12 g butanol/g/glucose | Residual glucose concentration [20]: 0.1 g/L | Butanol (100 nM, transfer 16, after 96 hours of culture): 9.59 g/L | Butanol productivity [21]: 0.10 g butanol/L-h | Butanol yield [21]: 0.16 g butanol/g/glucose | Residual glucose concentration [21]: 0.1 g/L | Butanol (100 nM, transfer 19, after 96 hours of culture): 4.76 g/L | Butanol productivity [22]: 0.05 g butanol/L-h | Butanol yield [22]: 0.08 g butanol/g/glucose | Residual glucose concentration [22]: 0.1 g/L | Butanol (100 nM, transfer 22, after 96 hours of culture): 6.85 g/L | Butanol productivity [23]: 0.07 g butanol/L-h | Butanol yield [23]: 0.11 g butanol/g/glucose | Residual glucose concentration [23]: 0.1 g/L | Butanol (100 nM, transfer 24, after 96 hours of culture): 4.67 g/L | Butanol productivity [24]: 0.05 g butanol/L-h | Butanol yield [24]: 0.08 g butanol/g/glucose | Residual glucose concentration [24]: 0.1 g/L | Transfers over which butanol production was enhanced (BP110517, sequential batch cultures (summary of findings)): transfer 4 through transfer 19 | Butanol yield and productivity greater than untreated control (BP110517 first experiment, 25 nM, transfer 4): 23% | Butanol yield and productivity greater than untreated control (BP110517 first experiment, 25 nM, transfer 16): 24% | Decrease of butanol concentration below that of controls [25]: 20% | Reduction in glucose utilization [25]: 80% | Butanol yield and productivity greater than untreated control (BP110517 first experiment, 50 nM, transfer 4): 20% | Butanol productivity [26]: 0.14 g butanol/1-hour | Butanol yield [26]: 0.23 g butanol/g glucose | Butanol yield and productivity greater than untreated control [26]: 46% | Butanol yield and productivity greater than untreated control (BP110517 first experiment, 50 nM, transfer 16): 16% | Effect on butanol production versus untreated control (BP110517 first experiment, 100 nM, except at transfer 10): generally resulted in decreased butanol production, or no difference from the untreated control | Glucose consumption (BP110517 first experiment, all treated and untreated cultures, transfer 4 through transfer 16): ~100% | Increase in butanol over untreated control (SEQ ID NO: 143 first experiment, 25 nM, transfer 4): ~25% | Increase in butanol over untreated control (SEQ ID NO: 143 first experiment, 25 nM, transfer 4, listed as BP110517): 23% | Increase in butanol over untreated control (SEQ ID NO: 143 first experiment, 25 nM, transfer 16): 24% | Increase in butanol over untreated control (SEQ ID NO: 143 first experiment, 50 nM, transfer 4): ~25% | Increase in butanol over untreated control (SEQ ID NO: 143 first experiment, 50 nM, transfer 4, listed as BP110517): 20% | Increase in butanol over untreated control (SEQ ID NO: 143 first experiment, 50 nM, transfer 10): 46% | Increase in butanol over untreated control (SEQ ID NO: 143 first experiment, 50 nM, transfer 16): 16% | Increase in butanol over untreated control (SEQ ID NO: 143 first experiment, 100 nM, transfer 10): 21% | Increase in butanol over untreated control (SEQ ID NO: 143 second experiment, 50 nM, transfer 10): more than 200% | Increase in butanol over untreated control (SEQ ID NO: 143 second experiment, 50 nM, transfer 10, listed as BP110517): 223% | Increase in butanol over untreated control (SEQ ID NO: 143 second experiment, 50 nM, transfer 13): 289% | Increase in butanol over untreated control (SEQ ID NO: 143 second experiment, 50 nM, transfer 16): 170% | Increase in butanol over untreated control (SEQ ID NO: 143 second experiment, 100 nM, transfer 10): more than 200% | Effect on differentiation and butanol production (sequential and continuous cultures): inducer of differentiation and butanol production
